Measurements reported in PubChem BioAssay AID1918955 (Molecular Pharmacology Branch, DTP, NCI, 2023).

Tested on: NCI/ADR-RES complex spheroid viability
Test: Anticancer human tumor NCI/ADR-RES cell line growth inhibition;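 further: spheroids exposed to compounds for 7 days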;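 on viability, T/C: 100% = DMSO vehicle treated spheroids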
Conditions: for IC50: curve of first compound; for viability, T/C: stronger effect = lower value; active means viability on the fitted dose curve at most 10% of control; inactive means the rest
In short: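 Drug combinations with the LSD1 inhibitor iadademstat tested on tumor cells co-cultured as spheroids with endothelial cells and mesenchymal stem cells. Concentrations descended in half-log increments from clinical Cmax or 10 microM.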

[1] = second compound 0.1 µM, first compound 0.0316 µM
[2] = second compound 0.1 µM, first compound 0.1 µM
[3] = second compound 0.1 µM, first compound 0.316 µM
[4] = second compound 0.1 µM, first compound 1 µM
[5] = second compound 0.1 µM, first compound 3.16 µM
[6] = second compound 0.1 µM, first compound 10 µM
[7] = second compound 0.316 µM, first compound 0.0316 µM
[8] = second compound 0.316 µM, first compound 0.1 µM
[9] = second compound 0.316 µM, first compound 0.316 µM
[10] = second compound 0.316 µM, first compound 1 µM
[11] = second compound 0.316 µM, first compound 3.16 µM
[12] = second compound 0.316 µM, first compound 10 µM
[13] = second compound 1 µM, first compound 0.0316 µM
[14] = second compound 1 µM, first compound 0.1 µM
[15] = second compound 1 µM, first compound 0.316 µM
[16] = second compound 1 µM, first compound 1 µM
[17] = second compound 1 µM, first compound 3.16 µM
[18] = second compound 1 µM, first compound 10 µM
[19] = second compound 3.16 µM, first compound 0.0316 µM
[20] = second compound 3.16 µM, first compound 0.1 µM
[21] = second compound 3.16 µM, first compound 0.316 µM
[22] = second compound 3.16 µM, first compound 1 µM
[23] = second compound 3.16 µM, first compound 3.16 µM
[24] = second compound 3.16 µM, first compound 10 µM
[25] = second compound 10 µM, first compound 0.0316 µM
[26] = second compound 10 µM, first compound 0.1 µM
[27] = second compound 10 µM, first compound 0.316 µM
[28] = second compound 10 µM, first compound 1 µM
[29] = second compound 10 µM, first compound 3.16 µM
[30] = second compound 10 µM, first compound 10 µM
[31] = second compound 0.1 µM, first compound 0.00949 µM
[32] = second compound 0.1 µM, first compound 0.03 µM
[33] = second compound 0.1 µM, first compound 0.0949 µM
[34] = second compound 0.1 µM, first compound 0.3 µM
[35] = second compound 0.316 µM, first compound 0.00949 µM
[36] = second compound 0.316 µM, first compound 0.03 µM
[37] = second compound 0.316 µM, first compound 0.0949 µM
[38] = second compound 0.316 µM, first compound 0.3 µM
[39] = second compound 1 µM, first compound 0.00949 µM
[40] = second compound 1 µM, first compound 0.03 µM
[41] = second compound 1 µM, first compound 0.0949 µM
[42] = second compound 1 µM, first compound 0.3 µM
[43] = second compound 3.16 µM, first compound 0.00949 µM
[44] = second compound 3.16 µM, first compound 0.03 µM
[45] = second compound 3.16 µM, first compound 0.0949 µM
[46] = second compound 3.16 µM, first compound 0.3 µM
[47] = second compound 10 µM, first compound 0.00949 µM
[48] = second compound 10 µM, first compound 0.03 µM
[49] = second compound 10 µM, first compound 0.0949 µM
[50] = second compound 10 µM, first compound 0.3 µM

CC1(C)CCC(CN2CCN(c3ccc(C(=O)NS(=O)(=O)c4ccc(NCC5CCOCC5)c([N+](=O)[O-])c4)c(Oc4cnc5[nH]ccc5c4)c3)CC2)=C(c2ccc(Cl)cc2)C1 + NC1CC1c1ccc(-c2cccc(O)c2)cc1
inactive: viability, T/C [1] 107% | viability, T/C [2] 109% | viability, T/C [3] 109% | viability, T/C [4] 104% | viability, T/C [5] 101% | viability, T/C [6] 95.6% | viability, T/C [7] 110% | viability, T/C [8] 111% | viability, T/C [9] 113% | viability, T/C [10] 101% | viability, T/C [11] 103% | viability, T/C [12] 89.7% | viability, T/C [13] 103% | viability, T/C [14] 106% | viability, T/C [15] 103% | viability, T/C [16] 99.8% | viability, T/C [17] 101% | viability, T/C [18] 99.4% | viability, T/C [19] 97.1% | viability, T/C [20] 97.8% | viability, T/C [21] 102% | viability, T/C [22] 108% | viability, T/C [23] 98.6% | viability, T/C [24] 89.8% | viability, T/C [25] 88.6% | viability, T/C [26] 98.4% | viability, T/C [27] 92.3% | viability, T/C [28] 94.5% | viability, T/C [29] 81.6% | viability, T/C [30] 75.7%
> 10 µM: IC50 (second compound 0.1 µM) | IC50 (second compound 0.316 µM) | IC50 (second compound 1 µM) | IC50 (second compound 3.16 µM) | IC50 (second compound 10 µM)

CC1COCCN1c1cc(C2(S(C)(=N)=O)CC2)nc(-c2ccnc3[nH]ccc23)n1 (stereo not given) + NC1CC1c1ccc(-c2cccc(O)c2)cc1
7 µM: IC50 (second compound 0.1 µM)
inactive: viability, T/C [1] 108% | viability, T/C [2] 108% | viability, T/C [3] 97.4% | viability, T/C [4] 90% | viability, T/C [5] 71.5% | viability, T/C [6] 40.4% | viability, T/C [7] 110% | viability, T/C [8] 104% | viability, T/C [9] 103% | viability, T/C [10] 91.8% | viability, T/C [11] 73.2% | viability, T/C [12] 48.7% | viability, T/C [13] 96.4% | viability, T/C [14] 97.4% | viability, T/C [15] 93.8% | viability, T/C [16] 90.1% | viability, T/C [17] 64.8% | viability, T/C [18] 39.4% | viability, T/C [19] 101% | viability, T/C [20] 95.1% | viability, T/C [21] 95.8% | viability, T/C [22] 86% | viability, T/C [23] 65.4% | viability, T/C [24] 40.6% | viability, T/C [25] 93.2% | viability, T/C [26] 94.1% | viability, T/C [27] 84.9% | viability, T/C [28] 71.6% | viability, T/C [29] 61.3% | viability, T/C [30] 38.5%
6.48 µM: IC50 (second compound 3.16 µM)
6.18 µM: IC50 (second compound 1 µM)
9.41 µM: IC50 (second compound 0.316 µM)
5.36 µM: IC50 (second compound 10 µM)

CCN(c1cc(-c2ccc(CN3CCOCC3)cc2)cc(C(=O)NCc2c(C)cc(C)[nH]c2=O)c1C)C1CCOCC1 + NC1CC1c1ccc(-c2cccc(O)c2)cc1
inactive: viability, T/C [31] 102% | viability, T/C [32] 104% | viability, T/C [33] 104% | viability, T/C [34] 106% | viability, T/C (second compound 0.1 µM, first compound 0.949 µM) 94.2% | viability, T/C (second compound 0.1 µM, first compound 3 µM) 88.9% | viability, T/C [35] 104% | viability, T/C [36] 102% | viability, T/C [37] 104% | viability, T/C [38] 103% | viability, T/C (second compound 0.316 µM, first compound 0.949 µM) 105% | viability, T/C (second compound 0.316 µM, first compound 3 µM) 95.5% | viability, T/C [39] 92.1% | viability, T/C [40] 96.3% | viability, T/C [41] 104% | viability, T/C [42] 90.2% | viability, T/C (second compound 1 µM, first compound 0.949 µM) 93.4% | viability, T/C (second compound 1 µM, first compound 3 µM) 87.7% | viability, T/C [43] 93% | viability, T/C [44] 99% | viability, T/C [45] 95.3% | viability, T/C [46] 94.9% | viability, T/C (second compound 3.16 µM, first compound 0.949 µM) 90.2% | viability, T/C (second compound 3.16 µM, first compound 3 µM) 81.8% | viability, T/C [47] 92.6% | viability, T/C [48] 87.8% | viability, T/C [49] 91.8% | viability, T/C [50] 86.7% | viability, T/C (second compound 10 µM, first compound 0.949 µM) 82.7% | viability, T/C (second compound 10 µM, first compound 3 µM) 79%
> 3 µM: IC50 (second compound 0.1 µM) | IC50 (second compound 0.316 µM) | IC50 (second compound 1 µM) | IC50 (second compound 3.16 µM) | IC50 (second compound 10 µM)

Nc1ncn(C2CC(O)C(CO)S2)c(=O)n1 (stereo not given) + NC1CC1c1ccc(-c2cccc(O)c2)cc1
active: viability, T/C [34] 2.46% | viability, T/C [38] 2.75% | viability, T/C [42] 2.79% | viability, T/C [46] 2.63% | viability, T/C [50] 3.24%
0.0074 µM: IC50 (second compound 0.1 µM)
0.00752 µM: IC50 (second compound 0.316 µM)
inactive: viability, T/C (second compound 0.1 µM, first compound 0.000949 µM) 89.3% | viability, T/C (second compound 0.1 µM, first compound 0.003 µM) 66% | viability, T/C [31] 44.7% | viability, T/C [32] 29.6% | viability, T/C [33] 11.8% | viability, T/C (second compound 0.316 µM, first compound 0.000949 µM) 91.2% | viability, T/C (second compound 0.316 µM, first compound 0.003 µM) 62.5% | viability, T/C [35] 47.8% | viability, T/C [36] 30.6% | viability, T/C [37] 9.77% | viability, T/C (second compound 1 µM, first compound 0.000949 µM) 88.4% | viability, T/C (second compound 1 µM, first compound 0.003 µM) 68% | viability, T/C [39] 41.2% | viability, T/C [40] 25.5% | viability, T/C [41] 9.64% | viability, T/C (second compound 3.16 µM, first compound 0.000949 µM) 85.4% | viability, T/C (second compound 3.16 µM, first compound 0.003 µM) 58.3% | viability, T/C [43] 43% | viability, T/C [44] 24.6% | viability, T/C [45] 9.31% | viability, T/C (second compound 10 µM, first compound 0.000949 µM) 77% | viability, T/C (second compound 10 µM, first compound 0.003 µM) 54% | viability, T/C [47] 38.6% | viability, T/C [48] 26.2% | viability, T/C [49] 11.8%
0.00448 µM: IC50 (second compound 10 µM)
0.00554 µM: IC50 (second compound 3.16 µM)
0.00682 µM: IC50 (second compound 1 µM)
